Source: the supplement of paper PMC10307832

How the values were obtained:
Experiment in all cases: relative viability (nuclei count vs DMSO), 5 days (fraction); higher = more cells survive
[1] = compound: C[C@@H](C(=O)N[C@@H](C1CCCCC1)C(=O)N2CCC[C@H]2C(=O)N[C@@H]3[C@@H](CC4=CC=CC=C34)OCC#CC#CCO[C@@H]5CC6=CC=CC=C6[C@@H]5NC(=O)[C@@H]7CCCN7C(=O)[C@H](C8CCCCC8)NC(=O)[C@H](C)NC)NC [AZD5582] + Nc1ncn([C@H]2C[C@H](O)[C@@H](CO)O2)c(=O)n1 [Decitabine] (partner 2 µM)
Summary of the method: (§1)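 For relative viability, nuclei counts in treated wells were divided by those in vehicle wells. Lung cancer cell lines had been pin-tool dosed in 1536-well plates the day after seeding and cultured for 5 days, then fixed and stained in one step (final 0.05% Triton X-100, 1% formaldehyde, 1 ug/ml Hoechst) and imaged at 4×. Doses were one drug alone or a fixed anchor-drug dose plus five library-drug doses (not always all listed) in √10 steps, and values are duplicate-plate medians.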

[2] = compound: C[C@@H](C(=O)N[C@@H](C1CCCCC1)C(=O)N2CCC[C@H]2C(=O)N[C@@H]3[C@@H](CC4=CC=CC=C34)OCC#CC#CCO[C@@H]5CC6=CC=CC=C6[C@@H]5NC(=O)[C@@H]7CCCN7C(=O)[C@H](C8CCCCC8)NC(=O)[C@H](C)NC)NC [AZD5582] + Cc1nc(NC(=O)N2CCC[C@H]2C(N)=O)sc1-c1ccnc(C(C)(C)C(F)(F)F)c1 [Alpelisib] (partner 2 µM)
Summary of the method: as §1

[3] = compound: Cn1nnc2c(C(N)=O)ncn2c1=O [Temozolomide] + CS(=O)(=O)CCNCc1ccc(-c2ccc3ncnc(Nc4ccc(OCc5cccc(F)c5)c(Cl)c4)c3c2)o1 [Lapatinib] (partner 2 µM)
Summary of the method: as §1

[4] = compound: Cn1nnc2c(C(N)=O)ncn2c1=O [Temozolomide] + Cc1nc(NC(=O)N2CCC[C@H]2C(N)=O)sc1-c1ccnc(C(C)(C)C(F)(F)F)c1 [Alpelisib] (partner 2 µM)
Summary of the method: as §1

Cell Line | relative viability ([1]; first compound 0.001581 µM) | relative viability ([1]; first compound 0.005 µM) | relative viability ([1]; first compound 0.01581 µM) | relative viability ([1]; first compound 0.05 µM) | relative viability ([2]; first compound 0.001581 µM) | relative viability ([2]; first compound 0.005 µM) | relative viability ([2]; first compound 0.01581 µM) | relative viability ([2]; first compound 0.05 µM) | relative viability ([3]; first compound 0.2 µM) | relative viability ([3]; first compound 0.6325 µM) | relative viability ([3]; first compound 2 µM) | relative viability ([3]; first compound 6.325 µM) | relative viability ([3]; first compound 20 µM) | relative viability ([4]; first compound 0.2 µM) | relative viability ([4]; first compound 0.6325 µM) | relative viability ([4]; first compound 2 µM) | relative viability ([4]; first compound 6.325 µM) | relative viability ([4]; first compound 20 µM)
HCC-366 | 0.346 | 0.37 | 0.386 | 0.395 | 0.363 | 0.625 | 0.389 | 0.774 | 1.18 | 1 | 1.1 | 1.08 | 1.07 | 0.337 | 0.391 | 0.456 | 0.462 | 0.358
HCC-827 | 0.281 | 0.292 | 0.348 | 0.308 | 0.898 | 1.02 | 0.985 | 1.04 | 0.207 | 0.238 | 0.191 | 0.191 | 0.195 | 0.995 | 0.978 | 1.02 | 0.995 | 0.136
HOP-62 | 0.213 | 0.209 | 0.247 | 0.213 | 0.997 | 0.934 | 0.87 | 1.25 | 1.29 | 1.02 | 1.05 | 1.05 | 0.75 | 1.18 | 1 | 0.896 | 0.847 | 0.814
IA-LM | – | – | – | – | 0.686 | 0.71 | 0.844 | 0.686 | 0.913 | 0.976 | 0.935 | 0.758 | 0.716 | 0.956 | 0.716 | 0.811 | 0.716 | 0.711
LC-2-ad | 0.822 | 0.847 | 0.765 | 0.764 | 0.911 | 0.98 | 0.834 | 1.11 | 0.961 | 1.02 | 0.962 | 0.964 | 0.895 | 0.896 | 0.842 | 0.942 | 0.818 | 0.642
LCLC-97TM1 | 0.216 | 0.189 | 0.243 | 0.0933 | – | 0.269 | 0.226 | 0.23 | 0.929 | 1.28 | 0.655 | 0.611 | 1.21 | 0.253 | 0.236 | 0.28 | 0.246 | 0.249
LCLC-103H | 0.698 | 0.798 | 0.718 | 0.724 | 0.97 | 1.23 | 0.471 | 0.64 | – | – | – | – | – | 0.819 | 0.976 | 1.09 | 0.999 | 0.927
LK-2 | 0.257 | 0.277 | 0.307 | 0.326 | 1.05 | 1.15 | 1.28 | 1.33 | 1.01 | 1.04 | 0.796 | 0.611 | 0.392 | 0.544 | 1.07 | 1.1 | 0.466 | 0.391
LOU-NH91 | 0.803 | 0.835 | 0.824 | 0.794 | 0.752 | 0.747 | 0.787 | 0.775 | 0.747 | 0.782 | 0.791 | 0.732 | 0.763 | 0.57 | 0.726 | 0.789 | 0.702 | 0.47
LU99A | 0.882 | 1.09 | 0.829 | 0.97 | 0.554 | 0.594 | 0.499 | 0.611 | 1.13 | 1.03 | 0.977 | 0.87 | 0.966 | 0.619 | 0.49 | 0.5 | 0.489 | 0.56
LXF-289 | 0.372 | 0.331 | 0.391 | 0.308 | 1 | 1.04 | 0.988 | 1.07 | 0.939 | 0.934 | 0.919 | 0.847 | 0.861 | 1.06 | 0.997 | 1.04 | 0.992 | 0.947
NCI-H23 | 0.334 | 0.293 | 0.27 | 0.278 | 0.446 | 0.456 | 0.7 | 0.419 | 1.22 | 1.04 | 1.15 | 0.969 | 0.912 | 0.645 | 0.73 | 0.552 | 0.764 | 0.734
NCI-H322M | 0.762 | 0.739 | 0.652 | 0.737 | 0.796 | 1.03 | 0.515 | 0.889 | – | 0.568 | 0.574 | 0.599 | 0.535 | – | 0.81 | 0.803 | 0.747 | 0.609
NCI-H441 | 0.211 | 0.23 | 0.21 | 0.225 | 0.511 | 0.709 | 0.594 | 0.615 | – | – | – | – | – | 0.881 | 0.804 | 0.901 | 0.743 | 0.566
NCI-H522 | 0.624 | 0.711 | 0.624 | 0.641 | – | – | – | – | – | – | – | – | – | – | – | – | – | –
NCI-H1299 | – | – | – | – | 1.01 | 1.11 | 1.07 | 1.03 | 1.03 | 0.98 | 0.994 | 0.97 | 0.962 | 1.11 | 1.11 | 1.14 | 1.04 | 1.05
NCI-H1563 | – | – | – | – | 1.02 | 0.893 | 0.858 | 1.01 | 0.889 | 0.89 | 0.993 | 0.859 | 1 | 0.957 | 1 | 1.01 | 0.861 | 0.94
NCI-H1648 | 0.502 | 0.528 | – | 0.466 | – | – | – | – | – | – | – | – | – | – | – | – | – | –
NCI-H1650 | 0.389 | 0.366 | 0.51 | 0.279 | – | – | – | – | 0.991 | 0.925 | 0.783 | 0.662 | 0.743 | – | – | – | – | –
NCI-H2228 | – | – | – | – | 0.776 | 0.625 | 0.924 | 0.365 | 1.15 | 1.04 | 1.3 | 0.959 | 1.18 | 0.77 | 0.721 | 0.516 | 0.813 | 0.679
NCI-H2342 | 0.692 | 0.835 | 0.698 | 0.702 | – | – | – | – | – | – | – | – | – | – | – | – | – | –
SW 900 | 0.372 | 0.364 | 0.38 | 0.246 | – | – | – | – | – | – | – | – | – | – | – | – | – | –
